Laboratory results as given in the NIST ThermoML archive (doi:10.1021/je049685z).
± gives the expanded uncertainty stated by the source.

Test: xn = mol fraction of the nth substance listed
Settings: Liquid

Cc1ccccc1 [toluene] + CCCO
mass density [kg/m3]
Settings	100 kPa	5000 kPa	10000 kPa	15000 kPa	20000 kPa	25000 kPa	30000 kPa
303.15 K, x2 = 0	857.4 ± 0.3	861.3 ± 0.3	865.1 ± 0.4	868.7 ± 0.4	872.3 ± 0.5	875.6 ± 0.6	878.9 ± 0.6
303.15 K, x2 = 0.2	847.5 ± 0.3	851.5 ± 0.3	855.3 ± 0.4	859 ± 0.5	862.5 ± 0.5	865.9 ± 0.6	869.2 ± 0.6
303.15 K, x2 = 0.4	837.2 ± 0.3	841.2 ± 5.1	845 ± 0.4	848.7 ± 0.5	852.2 ± 0.6	855.7 ± 0.6	858.9 ± 3.2
303.15 K, x2 = 0.6	825.9 ± 0.3	829.9 ± 0.9	833.7 ± 0.5	837.4 ± 0.5	840.9 ± 0.6	844.3 ± 0.7	847.5 ± 1.6
303.15 K, x2 = 0.8	812.4 ± 0.3	816.4 ± 3.1	820.2 ± 0.5	823.8 ± 0.6	827.3 ± 0.6	830.7 ± 0.7	834 ± 1.4
313.15 K, x2 = 0	848.1 ± 0.3	852.1 ± 0.3	856.2 ± 0.4	860 ± 0.5	863.7 ± 0.5	867.2 ± 0.6	870.7 ± 0.6
313.15 K, x2 = 0.2	838.1 ± 0.3	842.2 ± 0.3	846.3 ± 0.4	850.2 ± 0.5	853.9 ± 0.6	857.5 ± 0.6	860.9 ± 0.7
313.15 K, x2 = 0.4	828 ± 0.3	832 ± 0.4	836.1 ± 0.4	840 ± 0.5	843.7 ± 0.6	847.3 ± 0.7	850.7 ± 0.7
313.15 K, x2 = 0.6	816.9 ± 0.3	821 ± 0.4	825 ± 0.5	828.9 ± 0.5	832.6 ± 0.6	836.1 ± 0.7	839.5 ± 0.8
313.15 K, x2 = 0.8	803.8 ± 0.3	807.8 ± 0.4	811.9 ± 0.5	815.8 ± 0.6	819.4 ± 0.7	823 ± 0.7	826.3 ± 0.8
323.15 K, x2 = 0	838.6 ± 0.3	842.9 ± 0.3	847.2 ± 0.4	851.2 ± 0.5	855.1 ± 0.5	858.9 ± 0.6	862.5 ± 0.7
323.15 K, x2 = 0.2	828.5 ± 0.3	832.9 ± 0.4	837.2 ± 0.4	841.3 ± 0.5	845.2 ± 0.6	849 ± 0.6	852.6 ± 0.7
323.15 K, x2 = 0.4	818.3 ± 0.3	822.7 ± 0.4	827 ± 0.5	831.1 ± 0.5	835 ± 0.6	838.8 ± 0.7	842.4 ± 0.8
323.15 K, x2 = 0.6	807.4 ± 0.3	811.8 ± 0.4	816.1 ± 0.5	820.2 ± 0.6	824.1 ± 0.7	827.9 ± 0.7	831.5 ± 0.8
323.15 K, x2 = 0.8	794.7 ± 0.3	799.1 ± 0.4	803.4 ± 0.5	807.4 ± 0.6	811.3 ± 0.7	815 ± 0.8	818.6 ± 0.8
333.15 K, x2 = 0	829.2 ± 0.3	833.7 ± 0.4	838.2 ± 0.4	842.5 ± 0.5	846.6 ± 0.6	850.5 ± 0.6	854.3 ± 0.7
333.15 K, x2 = 0.2	818.7 ± 0.3	823.3 ± 0.4	827.9 ± 0.5	832.3 ± 0.5	836.4 ± 0.6	840.4 ± 0.7	844.2 ± 0.7
333.15 K, x2 = 0.4	808.5 ± 0.3	813.1 ± 6.6	817.8 ± 0.5	822.1 ± 0.6	826.3 ± 0.6	830.3 ± 0.7	834.1 ± 0.8
333.15 K, x2 = 0.6	797.9 ± 0.3	802.5 ± 1.2	807.1 ± 0.5	811.4 ± 0.6	815.6 ± 0.7	819.5 ± 0.8	823.3 ± 1.3
333.15 K, x2 = 0.8	785.6 ± 0.4	790.2 ± 4.5	794.7 ± 0.5	799 ± 0.6	803.1 ± 0.7	807 ± 0.8	810.8 ± 1.4
